Converted amounts (≈) assume the structure as drawn. Positions of bridges follow the written chain, without caps; N, C: chain ends. Non-standard residues stand in square brackets, D forms with d. Residues, ends and D or L forms follow the SMILES beside them. *: point of attachment. Phenylacetyl(4-Me) = Cc1ccc(CC(=O)*)cc1; Benzoyl(4-Me) = Cc1ccc(C(=O)*)cc1; Decanoyl = CCCCCCCCCC(=O)*; X31 = O=C(c1ccc(Cl)cc1F)*; Heptanoyl = CCCCCCC(=O)*; Octanoyl = CCCCCCCC(=O)*; Orn = NCCC[C@H](N)C(=O)O; X42 = Cc1ccc(C(=O)*)cc1F; Dab = NCC[C@H](N)C(=O)O; Abu = CC[C@H](N)C(=O)O; Dap = NC[C@H](N)C(=O)O; X27 = Cc1ccccc1C(=O)*
Columns and labels:
[1] = test system: Pseudomonas aeruginosa
Outline: (§1)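 Read-out is the MIC, obtained by broth microdilution under CLSI guidance. Lipopeptides (TFA salt form) were diluted in cation-adjusted Mueller-Hinton broth, with polymyxin B sulphate run alongside as control.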

[2] = test system: Acinetobacter baumannii
Outline: as §1

[3] = test system: Enterobacter cloacae
Outline: as §1

| SMILES | Minimum inhibitory concentration, Pa ATCC 27853 [1] [µg/mL] | Minimum inhibitory concentration, Pa FADDI-PA022 [1] [µg/mL] | Minimum inhibitory concentration, Pa FADDI-PA025 [1] [µg/mL] | Minimum inhibitory concentration, Ab A ATCC 17978 [2] [µg/mL] | Minimum inhibitory concentration, Ab ATCC 19606 [2] [µg/mL] | Minimum inhibitory concentration, Ab FADDI-AB034 [2] [µg/mL] | Minimum inhibitory concentration, Ec FADDI-EC001 [3] [µg/mL] | Minimum inhibitory concentration, Ec FADDI-EC003 [3] [µg/mL] | Minimum inhibitory concentration, Ec FADDI-EC006 [3] [µg/mL] |
| --- | --- | --- | --- | --- | --- | --- | --- | --- | --- |
| CCCCCCCC(=O)N[C@@H](CN)C(=O)N[C@H](C(=O)N[C@@H](CN)C(=O)N[C@H]1CCNC(=O)[C@H]([C@@H](C)O)NC(=O)[C@H](CCN)NC(=O)[C@H](CCN)NC(=O)[C@H]([C@@H](C)O)NC(=O)[C@@H](CC(C)C)NC(=O)[C@H](CCN)NC1=O)[C@@H](C)O [Compound 48] (Octanoyl-[Dap]T[Dap][Dab][Dab][dL]T[Dab][Dab]T; lactam 4-C) | 0.5 (≈ 0.448 µM) | 2 (≈ 1.79 µM) | 4 (≈ 3.59 µM) | 1 (≈ 0.897 µM) | 1 (≈ 0.897 µM) | 1 (≈ 0.897 µM) | 0.25 (≈ 0.224 µM) | <0.125 | <0.125 |
| CCCCCCCCCC(=O)N[C@@H](CCN)C(=O)N[C@H](C(=O)N[C@@H](CN)C(=O)N[C@H]1CCNC(=O)[C@H]([C@@H](C)O)NC(=O)[C@H](CCN)NC(=O)[C@H](CCN)NC(=O)[C@H](C)NC(=O)[C@@H](CC(C)C)NC(=O)[C@H](CCN)NC1=O)[C@@H](C)O [Compound 38] (Decanoyl-[Dab]T[Dap][Dab][Dab][dL]A[Dab][Dab]T; lactam 4-C) | 1 (≈ 0.887 µM) | 2 (≈ 1.77 µM) | 2 (≈ 1.77 µM) | 0.5 (≈ 0.443 µM) | 0.5 (≈ 0.443 µM) | 1 (≈ 0.887 µM) | 0.5 (≈ 0.443 µM) | 0.5 (≈ 0.443 µM) | 1 (≈ 0.887 µM) |
| CC[C@@H]1NC(=O)[C@@H](CC(C)C)NC(=O)[C@H](CCN)NC(=O)[C@@H](NC(=O)[C@H](CN)NC(=O)[C@@H](NC(=O)[C@H](CCN)NC(=O)c2ccc(C)c(F)c2)[C@@H](C)O)CCNC(=O)[C@H]([C@@H](C)O)NC(=O)[C@H](CCN)NC(=O)[C@H](CCN)NC1=O [Compound 102] (X42-[Dab]T[Dap][Dab][Dab][dL][Abu][Dab][Dab]T; lactam 4-C) | 0.5 (≈ 0.445 µM) | 0.5 (≈ 0.445 µM) | 2 (≈ 1.78 µM) | 1 (≈ 0.89 µM) | 2 (≈ 1.78 µM) | 1 (≈ 0.89 µM) | 1 (≈ 0.89 µM) | 0.5 (≈ 0.445 µM) | 4 (≈ 3.56 µM) |
| CC[C@@H]1NC(=O)[C@@H](CC(C)C)NC(=O)[C@H](CCN)NC(=O)[C@@H](NC(=O)[C@H](CN)NC(=O)[C@@H](NC(=O)[C@H](CCN)NC(=O)c2ccc(C)cc2)[C@@H](C)O)CCNC(=O)[C@H]([C@@H](C)O)NC(=O)[C@H](CCN)NC(=O)[C@H](CCN)NC1=O [Compound 98] ({Benzoyl(4-Me)}-[Dab]T[Dap][Dab][Dab][dL][Abu][Dab][Dab]T; lactam 4-C) | 0.5 (≈ 0.452 µM) | 0.5 (≈ 0.452 µM) | 2 (≈ 1.81 µM) | 2 (≈ 1.81 µM) | 2 (≈ 1.81 µM) | 2 (≈ 1.81 µM) | 1 (≈ 0.905 µM) | 0.25 (≈ 0.226 µM) | 2 (≈ 1.81 µM) |
| CCCCCCCCCC(=O)N[C@@H](CCN)C(=O)N[C@H](C(=O)N[C@@H](CN)C(=O)N[C@H]1CCNC(=O)[C@H]([C@@H](C)O)NC(=O)[C@H](CCN)NC(=O)[C@H](CCN)NC(=O)[C@H]([C@@H](C)O)NC(=O)[C@@H](CC(C)C)NC(=O)[C@H](CCN)NC1=O)[C@@H](C)O [Compound 37] (Decanoyl-[Dab]T[Dap][Dab][Dab][dL]T[Dab][Dab]T; lactam 4-C) | 1 (≈ 0.864 µM) | 0.5 (≈ 0.432 µM) | 2 (≈ 1.73 µM) | 0.5 (≈ 0.432 µM) | 0.25 (≈ 0.216 µM) | 0.25 (≈ 0.216 µM) | 0.5 (≈ 0.432 µM) | 4 (≈ 3.46 µM) | 0.5 (≈ 0.432 µM) |
| CCCCCCC(=O)N[C@@H](CCN)C(=O)N[C@H](C(=O)N[C@@H](CCN)C(=O)N[C@H]1CCNC(=O)[C@H]([C@@H](C)O)NC(=O)[C@H](CCN)NC(=O)[C@H](CCN)NC(=O)[C@H]([C@@H](C)O)NC(=O)[C@@H](CC(C)C)NC(=O)[C@H](CCN)NC1=O)[C@@H](C)O [Compound 42] (Heptanoyl-[Dab]T[Dab][Dab][Dab][dL]T[Dab][Dab]T; lactam 4-C) | 0.5 (≈ 0.443 µM) | 2 (≈ 1.77 µM) | >32 | 4 (≈ 3.54 µM) | 4 (≈ 3.54 µM) | 2 (≈ 1.77 µM) | <0.125 | <0.125 | 0.25 (≈ 0.221 µM) |
| CC[C@@H]1NC(=O)[C@@H](CC(C)C)NC(=O)[C@H](CCN)NC(=O)[C@@H](NC(=O)[C@H](CN)NC(=O)[C@@H](NC(=O)[C@H](CCN)NC(=O)Cc2ccc(C)cc2)[C@@H](C)O)CCNC(=O)[C@H]([C@@H](C)O)NC(=O)[C@H](CCN)NC(=O)[C@H](CCN)NC1=O [Compound 80] ({Phenylacetyl(4-Me)}-[Dab]T[Dap][Dab][Dab][dL][Abu][Dab][Dab]T; lactam 4-C) | 0.5 (≈ 0.447 µM) | 1 (≈ 0.893 µM) | 2 (≈ 1.79 µM) | 1 (≈ 0.893 µM) | 4 (≈ 3.57 µM) | 2 (≈ 1.79 µM) | <0.125 | 0.25 (≈ 0.223 µM) | 4 (≈ 3.57 µM) |
| CCCCCCCCCC(=O)N[C@@H](CCN)C(=O)N[C@H](C(=O)N[C@@H](CN)C(=O)N[C@H]1CCNC(=O)[C@H]([C@@H](C)O)NC(=O)[C@H](CCN)NC(=O)[C@H](CCN)NC(=O)[C@H](C(C)C)NC(=O)[C@@H](CC(C)C)NC(=O)[C@H](CCN)NC1=O)[C@@H](C)O [Compound 39] (Decanoyl-[Dab]T[Dap][Dab][Dab][dL]V[Dab][Dab]T; lactam 4-C) | 1 (≈ 0.865 µM) | 2 (≈ 1.73 µM) | 2 (≈ 1.73 µM) | 2 (≈ 1.73 µM) | 0.5 (≈ 0.433 µM) | 1 (≈ 0.865 µM) | 0.5 (≈ 0.433 µM) | 0.5 (≈ 0.433 µM) | 0.5 (≈ 0.433 µM) |
| CCCCCCCC(=O)N[C@@H](CCN)C(=O)N[C@H](C(=O)N[C@@H](CN)C(=O)N[C@H]1CCNC(=O)[C@H]([C@@H](C)O)NC(=O)[C@H](CCCN)NC(=O)[C@H](CCN)NC(=O)[C@H]([C@@H](C)O)NC(=O)[C@@H](CC(C)C)NC(=O)[C@H](CCN)NC1=O)[C@@H](C)O [Compound 53] (Octanoyl-[Dab]T[Dap][Dab][Dab][dL]T[Dab][Orn]T; lactam 4-C) | 8 (≈ 7 µM) | 2 (≈ 1.75 µM) | >32 | 8 (≈ 7 µM) | 16 (≈ 14 µM) | 8 (≈ 7 µM) | 0.5 (≈ 0.437 µM) | 2 (≈ 1.75 µM) | 8 (≈ 7 µM) |
| CC[C@@H]1NC(=O)[C@@H](CC(C)C)NC(=O)[C@H](CCN)NC(=O)[C@@H](NC(=O)[C@H](CN)NC(=O)[C@@H](NC(=O)[C@H](CCN)NC(=O)c2ccccc2C)[C@@H](C)O)CCNC(=O)[C@H]([C@@H](C)O)NC(=O)[C@H](CCN)NC(=O)[C@H](CCN)NC1=O [Compound 75] (X27-[Dab]T[Dap][Dab][Dab][dL][Abu][Dab][Dab]T; lactam 4-C) | 0.5 (≈ 0.452 µM) | 1 (≈ 0.905 µM) | 2 (≈ 1.81 µM) | 1 (≈ 0.905 µM) | 1 (≈ 0.905 µM) | 1 (≈ 0.905 µM) | 0.25 (≈ 0.226 µM) | 0.25 (≈ 0.226 µM) | 0.5 (≈ 0.452 µM) |
| CC[C@@H]1NC(=O)[C@@H](CC(C)C)NC(=O)[C@H](CCN)NC(=O)[C@@H](NC(=O)[C@H](CN)NC(=O)[C@@H](NC(=O)[C@H](CCN)NC(=O)c2ccc(Cl)cc2F)[C@@H](C)O)CCNC(=O)[C@H]([C@@H](C)O)NC(=O)[C@H](CCN)NC(=O)[C@H](CCN)NC1=O [Compound 134] (X31-[Dab]T[Dap][Dab][Dab][dL][Abu][Dab][Dab]T; lactam 4-C) | 0.5 (≈ 0.437 µM) | 1 (≈ 0.874 µM) | 1 (≈ 0.874 µM) | 2 (≈ 1.75 µM) | 2 (≈ 1.75 µM) | 0.5 (≈ 0.437 µM) | 0.25 (≈ 0.219 µM) | <0.125 | <0.125 |

From patent USRE48335E1, “Polymyxin derivatives as antimicrobial compounds” (priority 2014, dated 2020)
